The term IC50 denotes the point on the concentration scale where inhibition reaches its midpoint.

We go through three compounds from patent US11701371B2, “ENPP1 inhibitors and their use for the treatment of cancer” (THE BOARD OF TRUSTEES OF THE LELAND STANFORD JUNIOR …, priority 2017, dated 2023).

Experiment [1] concerns the target T1, purified recombinant mouse ENPP1 (Mus musculus (Mouse), UniProt P06802). The experiment can be described thus: ENPP1 enzyme activity assay using 32P cGAMP as a substrate. The experiment is classed as biochemical. The note with it: 32P-cGAMP 5 μM, mouse ENPP1 20 nM, pH 7.5, 5 hours.
Experiment [2] has as its target T1, purified recombinant mouse ENPP1. The experiment can be described thus: ENPP1 activity assay using TMP-pNP as a substrate. The note with it: TMP-pNP 2 μM, mouse ENPP1 0.5 nM, pH 7.5. It is filed as biochemical. The protocol: Selected compounds of Table 1, Table 2 and other derivatives were prepared and assessed in an ENPP1 activity assay using thymidine monophosphate paranitrophenol (TMP-pNP) as a substrate. Enzyme reactions were prepared with TMP-pNP (2 μM), 5-fold dilutions of ENPP1 inhibitor, and purified recombinant mouse ENPP1 (0.5 nM) in 100 mM Tris, 150 mM NaCl, 2 mM CaCl2, 200 μM ZnCl2, pH 7.5 at room temperature. Reaction progress was monitored by measuring absorbance at 400 nm of paranitrophenolate produced by the reaction for 20 minutes.

A further experiment relates to 4T1-luciferase tumor. The experiment is described as follows: 4T1-luciferase tumor model with IR, cGAMP and anti-CTLA-4: tumor volume and survival. The note with it: single agent intratumoral on day 2, 4 and 7 after 20 Gy IR. The experiment is classed as in vivo, mouse.

T1 sequence (P06802 whole entry): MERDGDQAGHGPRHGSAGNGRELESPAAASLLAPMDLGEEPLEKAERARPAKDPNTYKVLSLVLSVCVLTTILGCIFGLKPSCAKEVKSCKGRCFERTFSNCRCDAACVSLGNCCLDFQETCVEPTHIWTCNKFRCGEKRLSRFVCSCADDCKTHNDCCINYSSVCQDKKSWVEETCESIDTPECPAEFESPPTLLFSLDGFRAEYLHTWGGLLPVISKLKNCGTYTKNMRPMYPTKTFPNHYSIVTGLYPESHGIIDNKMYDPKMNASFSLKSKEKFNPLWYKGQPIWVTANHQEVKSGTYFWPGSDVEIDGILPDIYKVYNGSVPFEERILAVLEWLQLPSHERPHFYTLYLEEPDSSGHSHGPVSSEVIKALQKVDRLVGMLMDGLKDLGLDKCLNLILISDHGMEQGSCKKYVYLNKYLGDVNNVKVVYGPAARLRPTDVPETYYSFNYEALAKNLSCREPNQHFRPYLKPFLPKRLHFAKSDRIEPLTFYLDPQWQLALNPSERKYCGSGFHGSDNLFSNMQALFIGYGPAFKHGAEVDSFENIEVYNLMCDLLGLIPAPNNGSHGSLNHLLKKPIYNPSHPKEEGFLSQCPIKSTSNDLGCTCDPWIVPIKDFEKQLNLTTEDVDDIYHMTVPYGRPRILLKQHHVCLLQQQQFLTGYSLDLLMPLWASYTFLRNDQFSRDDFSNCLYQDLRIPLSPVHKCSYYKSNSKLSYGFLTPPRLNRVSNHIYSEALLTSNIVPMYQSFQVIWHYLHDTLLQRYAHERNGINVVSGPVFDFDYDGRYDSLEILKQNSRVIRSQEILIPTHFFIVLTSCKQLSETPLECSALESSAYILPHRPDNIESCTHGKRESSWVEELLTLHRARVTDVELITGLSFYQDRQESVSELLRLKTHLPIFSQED

With `COc1ccc2c(N3CCC(CCP(=O)(O)O)CC3)nc(C)nc2c1` [Compound 12], the IC50 in experiment [1] lay within 0.5 to 5 µM. As for `O=P(O)(O)CCC1CCN(c2ncnc3nc[nH]c23)CC1` [Compound 68], the IC50 in experiment [2] lay in the range of 0.5 to 5 µM. Take `Nc1nc2c(ncn2[C@@H]2O[C@@H]3COP(=O)(O)O[C@H]4[C@@H](O)[C@H](n5cnc6c(N)ncnc65)O[C@@H]4COP(=O)(O)O[C@@H]2[C@@H]3O)c(=O)[nH]1` [cGAMP, cyclic guanosine monophosphate-adenosine monophosphate]: the “tumor shrinkage effect on top of IR treatment” value in the experiment with 4T1-luciferase tumor is reported as “no effect over IR treatment”.
